Patent US20090012056A1, “Quinoline Compounds Capable of Binding the Cb2 and/or the 5-Ht6 Receptor” (GLAXO GROUP LIMITED, priority 2005, published 2009)
Where a name gives a salt, the structure may show the parent alone.

What was measured:
[1] = biological target: T1, human cloned 5-HT6 receptors (Homo sapiens, UniProt P50406); assay: Cyclase assay (cAMP production in membranes of HeLa 5HT6 cells, antagonism of 5-HT); format: biochemical; conditions: cyclase assay with 5-HT at 4xEC50, read-out: fpKi (functional pKi, antagonist potency) (converted)
T1 construct: expressed in transfected cells; host or cells: HeLa cells (membranes)
T1 sequence (P50406 whole entry): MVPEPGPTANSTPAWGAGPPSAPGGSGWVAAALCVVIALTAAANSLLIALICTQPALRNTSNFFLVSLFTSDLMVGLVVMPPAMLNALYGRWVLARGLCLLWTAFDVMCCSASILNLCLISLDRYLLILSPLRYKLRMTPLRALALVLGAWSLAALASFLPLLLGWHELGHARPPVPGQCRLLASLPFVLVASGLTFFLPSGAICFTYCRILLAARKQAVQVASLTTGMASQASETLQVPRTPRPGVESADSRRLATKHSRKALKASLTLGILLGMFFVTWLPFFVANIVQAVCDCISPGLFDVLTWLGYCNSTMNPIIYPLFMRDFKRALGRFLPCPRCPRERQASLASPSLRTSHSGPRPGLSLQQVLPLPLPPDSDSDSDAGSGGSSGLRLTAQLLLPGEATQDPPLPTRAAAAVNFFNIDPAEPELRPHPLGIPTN
Method: 0.5 μl of test compound in 100% dimethylsulfoxide (DMSO) was added to a white, solid 384 well assay plate (for dose response measurements the top of the concentration range is 7.5 μM final). 10 μl of washed membranes of HeLa 5HT6 cells (for preparation see WO 98/27081) in basic buffer (50 mM HEPES pH 7.4 (KOH), 1 mM MgCl2, 100 mM NaCl, 1 μl/ml 3-isobutyl-1-methylxanthine (IBMX) (Sigma-Aldrich)) was added to all wells followed by 10 μl 2×ATP buffer (100 μl/ml ATP and 1 μl/ml 3-Isobutyl-1-methylxanthine (IBMX) (Sigma-Aldrich)) with 5-HT (at a concentration equivalent to a dose response of 4×EC50). The resultant mixture was then incubated at room temperature for 30-45 minutes to allow cAMP production.
cAMP production was then measured using the DiscoveRx™ HitHunter™ chemiluminescence cAMP assay kit (DiscoveRx Corporation, 42501 Albrae Street, Fremont, Calif. 94538; Product Code: 90-0004L) or any other suitable cAMP measurement assay.
IC50 values were estimated from arbitrary designated unit (ADU) measurements from a Perkin Elmer Viewlux instrument using a four parameter logistic curve fit within EXCEL (Bowen, W. P. and Jerman, J. C. (1995), Nonlinear regression using spreadsheets. Trends in Pharmacol. Sci., 16, 413-417). Functional Ki values were calculated using the method of Cheng, Y. C. and Prussof, W. H. (Biochemical Pharmacol (1973) 22 3099-3108). pIC50 and fpKi are the negative log 10 of the molar IC50 and functional Ki respectively.

[2] = biological target: T2, human cannabinoid CB2 receptor (Homo sapiens, UniProt P34972); assay: Cannabinoid CB2 receptor agonist activity in yeast cells expressing the human CB2 receptor (FDGlu fluorescence); format: cell-based; conditions: 24 hours at 30° C., read-out: pEC50 at the CB2 receptor (agonist activity) (converted)
T2 construct: expressed in transfected cells; host or cells: Saccharomyces cerevisiae strain MMY23
T2 sequence (P34972 whole entry): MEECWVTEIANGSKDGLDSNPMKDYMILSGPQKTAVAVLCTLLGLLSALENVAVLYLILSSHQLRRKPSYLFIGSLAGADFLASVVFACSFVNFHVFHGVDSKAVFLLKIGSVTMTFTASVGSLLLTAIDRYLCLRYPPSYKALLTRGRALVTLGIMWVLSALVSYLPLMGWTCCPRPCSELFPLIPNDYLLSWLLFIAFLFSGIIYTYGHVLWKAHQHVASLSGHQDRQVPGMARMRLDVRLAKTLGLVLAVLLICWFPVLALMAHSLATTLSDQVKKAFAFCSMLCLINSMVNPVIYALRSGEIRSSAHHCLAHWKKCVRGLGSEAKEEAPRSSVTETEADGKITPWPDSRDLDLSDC
Text: Yeast (Saccharomyces cerevisiae) cells expressing the human cannabinoid CB2 receptor were generated by integration of an expression cassette into the ura3 chromosomal locus of yeast strain MMY23. This cassette consisted of DNA sequence encoding the human CB2 receptor flanked by the yeast GPD promoter to the 5′ end of CB2 and a yeast transcriptional terminator sequence to the 3′ end of CB2. MMY23 expresses a yeast/mammalian chimeric G-protein alpha subunit in which the C-terminal 5 amino acids of Gpa1 are replaced with the C-terminal 5 amino acids of human Gαi1/23 (as described in Brown et al. (2000), Yeast 16:11-22). Cells were grown at 30° C. in liquid Synthetic Complete (SC) yeast media (Guthrie and Fink (1991), Methods in Enzymology, Vol. 194) lacking uracil, tryptophan, adenine and leucine to late logarithmic phase (approximately 6 OD600/ml).
Agonists were prepared as 10 mM solutions in DMSO. EC50 values (the concentration required to produce 50% maximal response) were estimated using 4 fold dilutions of between 3- and 5-fold (BiomekFX, Beckman) into DMSO. Agonist solutions in DMSO (1% final assay volume) were transferred into black microtitre plates from NUNC Greiner (384-well). Cells were suspended at a density of 0.2 OD600/ml in SC media lacking histidine, uracil, tryptophan, adenine and leucine and supplemented with 10 mM 3-aminotriazole, 0.1M sodium phosphate pH 7.0, and 120 μM fluorescein di-β-D-glucopyranoside (FDGlu). This mixture (50 ul per well) was added to agonist in the assay plates (Multidrop 384, Labsystems). After incubation at 30° C. for 24 hours, fluorescence resulting from degradation of FDGlu to fluorescein due to exoglucanase, an endogenous yeast enzyme produced during agonist-stimulated cell growth, was determined using a fluorescence microtitre plate reader (Tecan Spectrofluor or LJL Analyst excitation wavelength: 485 nm; emission wavelength: 535 nm). Fluorescence was plotted against compound concentration and iteratively curve fitted using a four parameter fit to generate a concentration effect value.
Efficacy (Emax) was calculated from the equation
Emax=Max[compound X]−Min[compound X]/Max[HU210]−Min[HU210]×100% • where Max[compound X] and Min[compound X] are the fitted maximum and minimum respectively from the concentration effect curve for compound X, and Max[HU210] and Min[HU210] are the fitted maximum and minimum respectively from the concentration effect curve for (6aR,10aR)-3-(1,1′-Dimethylheptyl)-6a,7,10,10a-tetrahydro-1-hydroxy-6,6-dimethyl-6H-dibenzo[b,d]pyran-9-methanol (HU210; available from Tocris). Equieffective molar ratio (EMR) values were calculated from the equation
EMR=EC50[compound X]/EC50[HU210] • Where EC50 [compound X] is the EC50 of compound X and EC50 [HU210] is the EC50 of HU210. • pEC50 is the negative log of the EC50.

Ki [1] [µM] | EC50 [2] [µM] | SMILES
< 0.1 | ≤ 10 | CNCc1cccc2cc(S(=O)(=O)c3ccccc3)cnc12 [Example 26, N-methyl-1-[3-(phenylsulfonyl)-8-quinolinyl]methanamine hydrochloride]
≤ 1 | ≤ 10 | CC1CCCCN1Cc1cccc2cc(S(=O)(=O)c3ccccc3)cnc12 (centres unmarked) [Example 29, 8-[(2-Methyl-1-piperidinyl)methyl]-3-(phenylsulfonyl)quinoline hydrochloride]
< 0.1 | < 1 | O=S(=O)(c1ccccc1)c1cnc2c(CN3CCC(F)(F)CC3)cccc2c1 [Example 5, 8-[(4,4-Difluoro-1-piperidinyl)methyl]-3-(phenylsulfonyl)quinoline]
< 0.1 | < 1 | COC1CCN(Cc2cccc3cc(S(=O)(=O)c4ccccc4)cnc23)CC1 [Example 28, 8-[(4-Methoxypiperidin-1-yl)methyl]-3-(phenylsulfonyl)quinoline hydrochloride]
≤ 1 | ≤ 10 | CC(=O)N1CCN(Cc2cccc3cc(S(=O)(=O)c4ccccc4)cnc23)CC1 [Example 24, 8-[(4-acetyl-1-piperazinyl)methyl]-3-(phenylsulfonyl)quinoline hydrochloride]
< 0.1 | ≤ 10 | CC1CCC(C)N1Cc1cccc2cc(S(=O)(=O)c3ccccc3)cnc12 (centres unmarked) [Example 6, 8-[(2,5-Dimethyl-1-pyrrolidinyl)methyl)-3-(phenylsulfonyl)quinoline]
< 0.1 | ≤ 10 | O=S(=O)(c1ccccc1)c1cnc2c(CN3CCC4(CC3)OCCO4)cccc2c1 [Example 31, 8-(1,4-Dioxa-8-azaspiro[4.5]dec-8-ylmethyl)-3-(phenylsulfonyl)quinoline hydrochloride]
< 0.1 | ≤ 10 | O=S(=O)(c1ccccc1)c1cnc2c(CN3CCCC3)cccc2c1 [Example 1, 3-(Phenylsulfonyl)-8-(1-pyrrolidinylmethyl)quinoline hydrochloride]
< 0.1 | < 1 | CC(C)N(C)C(C)c1cccc2cc(S(=O)(=O)c3ccccc3)cnc12 (centres unmarked) [Example 20, N-Methyl-N-{1-[3-(phenylsulfonyl)quinolin-8-yl]ethyl}propan-2-amine hydrochloride]
< 0.1 | ≤ 10 | CN(C)Cc1cccc2cc(S(=O)(=O)c3ccccc3)cnc12 [Example 7, N,N-Dimethyl-1-[3-(phenylsulfonyl)quinolin-8-yl]methanamine]
≤ 1 | < 1 | O=S1(=O)CCN(Cc2cccc3cc(S(=O)(=O)c4ccccc4)cnc23)CC1 [Example 32, 8-[(1,1-Dioxido-4-thiomorpholinyl)methyl]-3-(phenylsulfonyl)quinoline hydrochloride]
< 0.1 | ≤ 10 | CC1CCCN1Cc1cccc2cc(S(=O)(=O)c3ccccc3)cnc12 (centres unmarked) [Example 8, 8-[(2-Methylpyrrolidin-1-yl)methyl]-3-(phenylsulfonyl)quinoline]
< 0.1 | < 1 | CC1CCCN(Cc2cccc3cc(S(=O)(=O)c4ccccc4)cnc23)C1 (centres unmarked) [Example 30, 8-[(3-Methyl-1-piperidinyl)methyl]-3-(phenylsulfonyl)quinoline hydrochloride]
